This note sets out measurements from PubChem BioAssay (NCI).

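Assay format: 96-well plates, 48-hour exposure. TGI: total growth inhibition.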 Where a SMILES comes first, the peptide text is derived from it. [ ]: non-standard residue; d: D form. The star is where a group is joined. mTyr = N[CH](Cc1cccc(O)c1)C(=O)O; Cbz = O=C(OCc1ccccc1)*; OBn = c1ccc(CO*)cc1 Bounds are passed on as bounds.

Among the test systems are ACHN renal; EKVX NSCLC; MCF7 breast; MOLT-4 leukemia; NCI-H226 lung; SF-295 CNS; SK-OV-3 ovarian; SR leukemia; SW-620 colon; TK-10 renal.
Common to all, as to experiment: DTP human tumour cell line panel, 48 h

Usually TGI stands for the concentration at which net growth stops. A low value points to more potent growth arrest.

`O=c1onc2c3ccccc3ncn12`: the TGI in the experiment on ACHN renal, with EKVX NSCLC, in the experiment with MCF7 breast, in the experiment with MOLT-4 leukemia, in the experiment on NCI-H226 lung and with SF-295 CNS was greater than 100 µM throughout. Further, the TGI in the experiment with SK-OV-3 ovarian, in the experiment with SR leukemia, in the experiment with SW-620 colon and in the experiment on TK-10 renal was greater than 100 µM each time.
`Nc1nc(Cl)c(N)c(NCC2(CO)CC(CCCc3ccccc3)C2)n1` (centres undefined): the concentration for total growth inhibition (TGI) with ACHN renal was 99.7 µM; with EKVX NSCLC, 10.1 µM; in the experiment with MCF7 breast, greater than 85.7 µM; with MOLT-4 leukemia it was greater than 100 µM; in the experiment with NCI-H226 lung, greater than 63.7 µM; with SF-295 CNS, greater than 59.5 µM. The TGI with SK-OV-3 ovarian, in the experiment on SR leukemia, with SW-620 colon and with TK-10 renal was greater than 100 µM in each case.
On to `O[C@H]1[C@H](O)[C@@H](O)[C@@]2(O)C[C@@H](O)[C@@H]1N2`, for which the concentration for total growth inhibition (TGI) in the experiment with ACHN renal, with EKVX NSCLC, with MCF7 breast, in the experiment on MOLT-4 leukemia, with NCI-H226 lung and in the experiment on SF-295 CNS was greater than 100 µM in each case. In addition, the total growth inhibition concentration (TGI) with SK-OV-3 ovarian, in the experiment on SR leukemia, in the experiment on SW-620 colon and in the experiment with TK-10 renal was greater than 100 µM each time.
Regarding `COc1cc([C@@H]2c3cc(O)c(OC)cc3C=C(C(N)=O)[C@H]2C(N)=O)ccc1O`, the TGI in the experiment on ACHN renal, in the experiment on EKVX NSCLC, in the experiment on MCF7 breast, in the experiment on MOLT-4 leukemia, in the experiment with NCI-H226 lung and in the experiment on SF-295 CNS was greater than 100 µM each time. Also, the total growth inhibition concentration (TGI) with SR leukemia and in the experiment with SW-620 colon was greater than 100 µM in each case.
Consider `CCOC(=O)[C@H](Cc1ccc(O)cc1)N=C1[C@H]2CCC[C@]1(O)[C@@](C)([N+](=O)[O-])C2`, for which the total growth inhibition concentration (TGI) in the experiment with ACHN renal, in the experiment on EKVX NSCLC, in the experiment on MCF7 breast, with MOLT-4 leukemia, with NCI-H226 lung and with SF-295 CNS was greater than 100 µM in each case. Also, the TGI in the experiment with SK-OV-3 ovarian, with SR leukemia, in the experiment with SW-620 colon and with TK-10 renal was greater than 100 µM in each case.
For `COC(=O)C1=C(C)N2[C@H](C(=O)O)CO[C@@]2(C)[C@H](C(=O)OC)[C@H]1c1cccc([N+](=O)[O-])c1`, the TGI in the experiment on ACHN renal, in the experiment on EKVX NSCLC, with MCF7 breast, with MOLT-4 leukemia, in the experiment on NCI-H226 lung and in the experiment with SF-295 CNS was greater than 100 µM in each case. The concentration for total growth inhibition (TGI) in the experiment with SK-OV-3 ovarian, in the experiment on SR leukemia, with SW-620 colon and in the experiment on TK-10 renal was greater than 100 µM throughout.
For the molecule `CC(=O)OCC1OC(n2c(=O)[nH]c(=O)c3sccc32)C(Br)C1OC(C)=O` (centres undefined), the TGI in the experiment with ACHN renal, in the experiment with EKVX NSCLC, in the experiment on MCF7 breast, in the experiment with MOLT-4 leukemia, in the experiment on NCI-H226 lung and in the experiment on SF-295 CNS was greater than 100 µM throughout. Also, the concentration for total growth inhibition (TGI) in the experiment with SR leukemia, in the experiment on SW-620 colon and in the experiment with TK-10 renal was greater than 100 µM in each case.
Consider `COC(=O)C1=C(OC(=O)c2ccccc2)C(C(=O)OC)[C@]2(O)[C@@H](C(=O)OC)[C@H]1C[C@@H](c1ccccc1)[C@@H]2C(=O)OC` (some centres undefined), for which the TGI in the experiment on ACHN renal is 72.4 µM; in the experiment with EKVX NSCLC, greater than 100 µM; in the experiment on MCF7 breast, 15.7 µM; in the experiment on MOLT-4 leukemia, 23 µM; in the experiment on NCI-H226 lung it was 19.2 µM; in the experiment on SF-295 CNS it was 36.7 µM. For the same molecule, the TGI came out at 48.3 µM in the experiment on SK-OV-3 ovarian, 31.3 µM in the experiment on SR leukemia, 40.1 µM with SW-620 colon and 69.9 µM in the experiment with TK-10 renal.
For `N#C/C(=C\c1c[nH]c2ccccc12)C(=O)c1ccc(O)c(O)c1`, the TGI was greater than 94.3 µM in the experiment on ACHN renal; greater than 100 µM in the experiment with EKVX NSCLC; greater than 100 µM in the experiment with MCF7 breast; 98.1 µM in the experiment on MOLT-4 leukemia; greater than 100 µM in the experiment with NCI-H226 lung; 67 µM in the experiment with SF-295 CNS. In addition, the concentration for total growth inhibition (TGI) is greater than 100 µM with SK-OV-3 ovarian, greater than 31.6 µM with SR leukemia, greater than 100 µM in the experiment on SW-620 colon and 98.2 µM in the experiment with TK-10 renal.
With `Cc1nc(-c2ccc(N=Cc3ccc(N(CCOS(C)(=O)=O)CCOS(C)(=O)=O)cc3C)cc2)cs1`, the TGI was 19.2 µM with ACHN renal; 53.6 µM in the experiment on MCF7 breast; greater than 100 µM with MOLT-4 leukemia; 28.3 µM in the experiment with NCI-H226 lung; greater than 100 µM in the experiment with SF-295 CNS; greater than 100 µM in the experiment with SK-OV-3 ovarian. For the same molecule, the TGI in the experiment with SR leukemia, with SW-620 colon and in the experiment with TK-10 renal was greater than 100 µM in each case.
Turning to `O=C(Nc1cccc(F)c1)c1cc2ccc(O)cc2oc1=Nc1ccccc1F`, the TGI in the experiment with ACHN renal worked out at 14.2 µM; in the experiment with EKVX NSCLC, 6.17 µM; with MCF7 breast it was 25.7 µM; in the experiment on MOLT-4 leukemia, 24.7 µM; in the experiment on SF-295 CNS it was 23.6 µM; in the experiment with SK-OV-3 ovarian, 15.9 µM. Besides, the TGI in the experiment on SR leukemia was 39.5 µM; in the experiment on SW-620 colon, 45.4 µM.
Take `Brc1ccc(-c2cn3ccncc3n2)cc1`: the concentration for total growth inhibition (TGI) in the experiment with ACHN renal, with EKVX NSCLC, in the experiment on MCF7 breast, with MOLT-4 leukemia, with NCI-H226 lung and in the experiment on SF-295 CNS was greater than 100 µM throughout. In addition, the concentration for total growth inhibition (TGI) with SK-OV-3 ovarian, with SR leukemia and in the experiment on TK-10 renal was greater than 100 µM each time.
As for `Cc1ccc2nc(NC(=O)/C(Cc3nc4ccc(Cl)cc4[nH]c3=O)=N\NC(C)(C)C)sc2c1`, the TGI with ACHN renal is greater than 100 µM; with MCF7 breast it was greater than 100 µM; in the experiment with MOLT-4 leukemia, greater than 100 µM; in the experiment with NCI-H226 lung it was 91.3 µM; in the experiment with SF-295 CNS, greater than 100 µM; in the experiment with SK-OV-3 ovarian it was greater than 100 µM. The total growth inhibition concentration (TGI) in the experiment on SR leukemia and in the experiment on SW-620 colon was greater than 100 µM throughout.
Turning to `COC(=O)C(Cc1cccc(O)c1)NC(=O)C(CC(=O)OCc1ccccc1)NC(=O)OCc1ccccc1` (centres undefined) (Cbz-Asp(OBn)-[mTyr]-OMe; configuration not given here), the TGI in the experiment with ACHN renal, with EKVX NSCLC, in the experiment with MCF7 breast, with MOLT-4 leukemia, in the experiment on NCI-H226 lung and in the experiment with SR leukemia was greater than 100 µM in each case. In addition, the TGI in the experiment with SW-620 colon and in the experiment on TK-10 renal was greater than 100 µM each time.
